Data: patent US6716842B2, “Antidiabetic agents” (Warner-Lambert Company, LLC, priority 2002, dated 2004)
Where two headings read alike, the source gives them in different places.

Test system: PPAR-γ (promoter/enhancer of the murine aP2 gene in 3T3-L1 cells)
Assay: 3T3-L1 transient reporter assay (AD3T3L1)
Assay type: cell-based
Settings: for % Max BRL: maximal effect relative to reference BRL 49653
Protocol: TEST E—3T3-L1 TRANSIENT REPORTER ASSAY
This assay is used to determine the potential of putative PPAR-γ ligands to activate the promoter/enhancer of the murine aP2 gene. 3T3-L1 preadipocytes are cultured on collagen coated plates in DMEM containing 10% Calf serum for 48 hours post-confluence. The cells are then cultured for approximately 3 days in DMEM containing 10% Fetal Bovine Serum (FBS), 0.5-mM methyl isobutylxanthine, 0.25 μM dexamethasone, and 1 μg/ml of insulin. Cells are detached from the plates with Trypsin-EDTA and resuspended in Phosphate Buffered Saline (PBS).
The reporter construct used in this assay is comprised of the −5.4 Kb 5′ flanking region of the murine aP2 gene inserted into the cloning site of the TKpGL3 luciferase vector. Transfection efficiency is controlled by co-transfection of the reference plasmid CMV-β-galactosidase. The reporter construct and the reference plasmid are transiently co-transfected into the cells by electroporation. The transfected cells are plated into collagen coated 96-well plates and cultured overnight. Cells are then incubated for 48 hours with the test compounds and then harvested. The lysates are measured for luciferase and β-galactosidase activities using the Dual-Light® luciferase kit from Tropix on a EG&G Berthold MicroLumat LB96P luminometer.

Row | Molecule | EC50 | % Max BRL | EC50 (Mus musculus)
1 | 3-{2-Hydroxy-4-[2-(5-methyl-2-phenyl-oxazol-4-yl)-ethoxy]-phenyl}-propionic acid ethyl ester | 5.9 µM | 74% | 
2 | Cc1oc(-c2ccccc2)nc1CCOc1ccc(CCC(=O)O)c(OCc2ccccn2)c1 [3-[4-[2-(5-Methyl-2-phenyl-oxazol-4-yl)-ethoxy]-2-(pyridin-2-ylmethoxy)-phenyl]-propionic acid] |  | 108% | 0.103 µM
3 | Cc1oc(-c2ccccc2)nc1CCOc1ccc(CCC(=O)O)c(O)c1 [3-[4-[2-(5-Methyl-2-phenyl-oxazol-4-yl)-ethoxy]-2-(hydroxy)-phenyl]-propionic acid] |  | 70% | 3.4 µM
